From ChEMBL document CHEMBL1201862, “PubChem BioAssay data set” (2004) come the findings set out here.

Test systems include SK-OV-3; HCT-15; EKVX; Hs-578T; SF-539; SW-620; MOLT-4; HCT-116; OVCAR-8; SN12C; CAKI-1; LOX IMVI; NCI-H522; MDA-N; HOP-62; SK-MEL-28; SF-268; U-251; UO-31.
Experiment in all cases: NCI-60 cell line screen, 48 h

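Values below derive from 48-hour exposures of cells grown in 96-well plates, with endpoints linearly interpolated between the two concentrations bracketing the appropriate inhibition level. GI50: concentration for 50% inhibition of growth.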 Activity calls are given as the source filed them. Cut-off read from the data, not from the text of the source: active = GI50 up to about 1.1 µM and inactive = higher.

Regarding `CCOC(=O)c1sc(=S)n(-c2ccc(Cl)cc2)c1-n1cc(-c2ccccc2)c(C#N)c1N`, the GI50 with SK-OV-3 is 16.9 µM (inactive); in the test on HCT-15 it was 42.8 µM; in the test on EKVX, 22.5 µM (inactive); in the test on Hs-578T, 4.19 µM (inactive); with SF-539, 19.8 µM (inactive); in the test with SW-620, 53 µM (inactive). Also, the GI50 is > 100 µM (inactive) with MOLT-4; 26.1 µM (inactive) in the test with HCT-116; 12.1 µM (inactive) in the test on OVCAR-8; 18.6 µM (inactive) in the test with SN12C; > 100 µM (inactive) in the test on CAKI-1; 43.5 µM (inactive) in the test with LOX IMVI. Besides, the GI50 was 3.32 µM (inactive) with NCI-H522; 50.8 µM (inactive) in the test with MDA-N; 3.13 µM (inactive) with HOP-62; 38.2 µM (inactive) with SK-MEL-28; 2.72 µM (inactive) in the test on SF-268; 15.2 µM (inactive) in the test with U-251.

For `CC1C(OS(=O)(=O)c2ccc3nc(S)sc3c2)CC2C3(C)CCC2(C(C)C(=O)O)C(O)C13` (stereo not drawn), the GI50 was 40.7 µM (inactive) with SK-OV-3; 17.4 µM (inactive) in the test with UO-31; 12.5 µM in the test on HCT-15; 31.3 µM (inactive) in the test with EKVX; 48.1 µM (inactive) with Hs-578T; 17.6 µM (inactive) with SF-539. Also, the GI50 is 16.9 µM (inactive) in the test on MOLT-4; 13.6 µM (inactive) with HCT-116; 20.1 µM (inactive) in the test on OVCAR-8; 28 µM (inactive) with SN12C; 22 µM (inactive) in the test on CAKI-1; 3.29 µM (inactive) with NCI-H522. Further, the GI50 in the test on MDA-N was 22.4 µM (inactive); with HOP-62, 29.1 µM (inactive); in the test with SK-MEL-28 it was 26.8 µM (inactive); in the test on SF-268, 27.4 µM (inactive); in the test on U-251 it was 16.2 µM (inactive).

`CCC(C)C(NC(=O)c1cccc2c(=O)c3ccccc3[nH]c12)C(=O)O` (stereo not drawn): the GI50 with SK-OV-3 was > 100 µM (inactive); with UO-31 it was 48.6 µM (inactive); in the test with HCT-15 it was above 100 µM; in the test with EKVX it was > 100 µM (inactive); with Hs-578T, > 100 µM (inactive); in the test on SW-620 it was > 100 µM (inactive). The GI50 was 82.6 µM (inactive) in the test on MOLT-4; > 100 µM (inactive) in the test with HCT-116; > 100 µM (inactive) in the test on OVCAR-8; > 100 µM (inactive) in the test on SN12C; > 100 µM (inactive) with LOX IMVI; > 100 µM (inactive) in the test with NCI-H522. The GI50 in the test on MDA-N is > 100 µM (inactive); in the test with HOP-62, > 100 µM (inactive); in the test with SK-MEL-28, > 100 µM (inactive); in the test with SF-268, 87.5 µM (inactive); in the test on U-251, 73.5 µM (inactive).

On to `CCC1C(c2cccc(OC)c2O)c2cc3c(cc2OC1N1CCCC1)OCO3` (stereo not drawn), for which the GI50 in the test with UO-31 is 14.1 µM (inactive); with HCT-15, 12.2 µM; with EKVX, 22.8 µM (inactive); with Hs-578T, 3.75 µM (inactive); in the test with SF-539 it was 12.2 µM (inactive); in the test on SW-620 it was 12.2 µM (inactive). Also, the GI50 was 12.8 µM (inactive) with MOLT-4; 8.47 µM (inactive) in the test on HCT-116; 20.6 µM (inactive) in the test with OVCAR-8; 18.1 µM (inactive) with SN12C; 23.3 µM (inactive) with LOX IMVI; 10.7 µM (inactive) with NCI-H522. Moreover, the GI50 is 3.24 µM (inactive) in the test with MDA-N, 18.4 µM (inactive) with HOP-62, 16.3 µM (inactive) in the test on SK-MEL-28 and 16.7 µM (inactive) with SF-268.

As to `CCOC(=O)/C(C(=S)Nc1ccccc1)=C(/N)N1CCCC1`, the GI50 in the test on UO-31 was > 100 µM (inactive); in the test on HCT-15 it was above 100 µM; in the test on EKVX it was > 100 µM (inactive); with Hs-578T, 77.4 µM (inactive); in the test on SF-539, > 100 µM (inactive); in the test with SW-620 it was 48.9 µM (inactive). The GI50 in the test on MOLT-4 is > 100 µM (inactive); in the test with HCT-116 it was 65.5 µM (inactive); in the test with OVCAR-8, > 100 µM (inactive); with SN12C, > 100 µM (inactive); in the test with CAKI-1, > 100 µM (inactive); with LOX IMVI, > 100 µM (inactive). Also, the GI50 in the test on NCI-H522 is > 100 µM (inactive); with MDA-N, 31 µM (inactive); in the test with HOP-62, > 100 µM (inactive); in the test on SK-MEL-28 it was > 100 µM (inactive); in the test with SF-268, > 100 µM (inactive); in the test on U-251 it was 61.2 µM (inactive).

Regarding `CC(=O)NNC1=NN(C(C)=O)C2(S1)C(=O)Nc1ccc(C)cc12` (stereo not drawn), the GI50 in the test with UO-31 is 32.4 µM (inactive); in the test with HCT-15, 50 µM; in the test on EKVX it was 78.9 µM (inactive); in the test on Hs-578T, 26.4 µM (inactive); in the test with SF-539, > 100 µM (inactive); with MOLT-4 it was > 100 µM (inactive). The GI50 in the test with HCT-116 was > 100 µM (inactive); with OVCAR-8, 83.6 µM (inactive); in the test on SN12C it was > 100 µM (inactive); with CAKI-1 it was 73.6 µM (inactive); in the test on LOX IMVI, > 100 µM (inactive); with NCI-H522, 42 µM (inactive). Further, the GI50 is > 100 µM (inactive) in the test on MDA-N; 35.3 µM (inactive) in the test on HOP-62; 78.3 µM (inactive) in the test on SK-MEL-28; > 100 µM (inactive) in the test on SF-268; 41.7 µM (inactive) in the test with U-251.

For `COC(=O)CNC(=O)c1cc(C)cc2c1Oc1c(cc(C)cc1C(=O)NCC(=O)OC)S2`, the GI50 in the test with SK-OV-3 was 56 µM (inactive); with HCT-15, 53.1 µM; with EKVX it was > 100 µM (inactive); with Hs-578T, 65.6 µM (inactive); in the test on SF-539 it was 21.3 µM (inactive); in the test on SW-620 it was > 100 µM (inactive). The GI50 in the test on MOLT-4 is 62.2 µM (inactive); in the test with HCT-116, > 100 µM (inactive); in the test on OVCAR-8 it was > 100 µM (inactive); in the test on SN12C, 57.8 µM (inactive); in the test on CAKI-1 it was > 100 µM (inactive); in the test on LOX IMVI, 96.4 µM (inactive). In addition, the GI50 in the test with NCI-H522 is 89.7 µM (inactive); in the test on MDA-N, > 100 µM (inactive); with HOP-62 it was > 100 µM (inactive); with SK-MEL-28 it was 47.8 µM (inactive); in the test with SF-268, 99.8 µM (inactive); with U-251, > 100 µM (inactive).

Turning to `CC(=O)O[C@H]1C(=O)[C@@]2(C)[C@H]([C@H](OC(=O)c3cccc(C(F)(F)F)c3)[C@]3(O)C[C@H](OC(=O)[C@H](O)[C@@H](NC(=O)c4ccccc4)c4ccccc4)C(C)=C1C3(C)C)[C@]1(OC(C)=O)CO[C@@H]1C[C@@H]2O`, the GI50 in the test on SK-OV-3 is 0.0288 µM (active); with UO-31, 0.918 µM (active); in the test on HCT-15, 0.268 µM; in the test with Hs-578T it was < 0.0025 µM (active); in the test with SF-539, < 0.0025 µM (active); in the test with SW-620, < 0.0025 µM (active). Moreover, the GI50 in the test on MOLT-4 is 0.00427 µM (active); in the test on HCT-116 it was < 0.0025 µM (active); with OVCAR-8, 0.00252 µM (active); in the test with SN12C, 0.00603 µM (active); with CAKI-1 it was 0.906 µM (active); in the test on NCI-H522, < 0.0025 µM (active). For the same molecule, the GI50 is < 0.0025 µM (active) in the test on MDA-N; 0.0162 µM (active) with HOP-62; 1.89 µM (inactive) in the test with SK-MEL-28; 0.223 µM (active) in the test on SF-268; < 0.0025 µM (active) with U-251.
